# From US7741327B2 (Hoffmann-La Roche Inc., priority 2008, dated 2010)
# Target: T1, Recombinant human liver GK1 (GST-GK) (Homo sapiens, UniProt P35557)
# T1 construct: made in house; host or cells: E. coli
# T1 sequence (P35557 1-466 isoform P35557-2): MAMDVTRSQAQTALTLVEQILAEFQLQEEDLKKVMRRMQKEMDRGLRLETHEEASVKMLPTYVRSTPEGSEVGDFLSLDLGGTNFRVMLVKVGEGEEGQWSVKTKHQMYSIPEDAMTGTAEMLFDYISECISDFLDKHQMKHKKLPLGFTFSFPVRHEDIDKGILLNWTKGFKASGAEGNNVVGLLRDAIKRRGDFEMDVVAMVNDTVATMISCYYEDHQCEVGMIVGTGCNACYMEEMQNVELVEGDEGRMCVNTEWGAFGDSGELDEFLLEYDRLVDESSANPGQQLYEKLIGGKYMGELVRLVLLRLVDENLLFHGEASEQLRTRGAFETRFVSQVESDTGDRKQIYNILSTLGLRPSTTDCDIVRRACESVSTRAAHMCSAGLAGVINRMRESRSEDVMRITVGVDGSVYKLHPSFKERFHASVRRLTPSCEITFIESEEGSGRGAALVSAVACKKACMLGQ
# Assay: In vitro glucokinase activity (G6PDH-coupled NADH assay)
# Format: biochemical
# Conditions: 30° C., 5 mM D-glucose, 10% DMSO
# Procedure, shortened: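 Activation measured as the rate of OD340 rise from G6PDH-coupled NADH production, relative to 10% DMSO control, reported as SC1.5 (concentration for 50% activity increase). Conditions: 30° C, pH 7.1 Hepes, 5 mM glucose, 1 mM ATP, purified recombinant GST-human GK1, compound preincubated 10 min before enzyme addition.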
row,SMILES,SC1.5 (concentration of activator that produced a 50% increase in the activity of GK) [µM]
1,"Cc1ccc(F)c(OC2=CC(=O)N([C@@H](CC(C)C)C(=O)Nc3ccn(C[C@@H](O)CO)n3)C2)c1 [Example 103, (S)-2-[4-(2-Fluoro-5-methyl-phenoxy)-2-oxo-2,5-dihydro-pyrrol-1-yl]-4-methyl-pentanoic acid [1-((R)-2,3-dihydroxy-propyl)-1H-pyrazol-3-yl]-amide]",0.072
2,"CC(C)C[C@@H](C(=O)Nc1ccn(C[C@@H](O)C[C@@H](O)CC(=O)OC(C)(C)C)n1)N1CC(Oc2ccccc2Cl)=CC1=O [Example 193, (3R,5S)-6-(3-{(S)-2-[4-(2-chloro-phenoxy)-2-oxo-2,5-dihydro-pyrrol-1-yl]-4-methyl-pentanoylamino}-pyrazol-1-yl)-3,5-dihydroxy-hexanoic acid t-butyl ester]",0.307
3,"Cc1ccccc1OC1=CC(=O)N([C@@H](CC(C)C)C(=O)Nc2ccn(CC(C)(C)O)n2)C1 [Example 125, (S)-4-Methyl-2-(2-oxo-4-o-tolyloxy-2,5-dihydro-pyrrol-1-yl)-pentanoic acid [1-(2-hydroxy-2-methyl-propyl)-1H-pyrazol-3-yl]-amide]",0.252
4,"O=C(Nc1ccn(C[C@@H](O)CO)n1)C(CC(F)(F)F)N1CC(Oc2ccccc2Cl)=CC1=O (stereo partly drawn) [Example 224, 2-[4-(2-Chloro-phenoxy)-2-oxo-2,5-dihydro-pyrrol-1-yl]-N-[1-((R)-2,3-dihydroxy-propyl)-1H-pyrazol-3-yl]-4,4,4-trifluoro-butyramide]",> 30
5,"CC(C)(O)Cn1ccc(NC(=O)[C@H](C[C@H]2C[C@H](C)C2)N2CC(Oc3ccccc3Cl)=CC2=O)n1 (single isomer, unassigned) [Example 215]",0.014
6,"CC(C)C[C@@H](C(=O)Nc1nc(CCC(F)(F)F)ns1)N1CC(Oc2ccccc2Cl)=CC1=O [Example 106, (S)-2-[4-(2-Chloro-phenoxy)-2-oxo-2,5-dihydro-pyrrol-1-yl]-4-methyl-pentanoic acid [3-(3,3,3-trifluoro-propyl)-[1,2,4]thiadiazol-5-yl]-amide]",~30
7,"COC(=O)c1ccc(NC(=O)C(CC2CCOCC2)N2CC(Oc3c(F)cccc3F)=CC2=O)nc1 (stereo not shown) [Example 40, 6-[2-[4-(2,6-difluoro-phenoxy)-2-oxo-2,5-dihydro-pyrrol-1-yl]-3-(tetrahydro-pyran-4-yl)-propionylamino]-nicotinic acid methyl ester]",0.19
8,"COc1cccc(OC2=CC(=O)N(C(CC3CCOCC3)C(=O)Nc3ccn(C[C@@H](O)CO)n3)C2)c1Cl (stereo partly drawn) [Example 53, 2-[4-(2-Chloro-3-methoxy-phenoxy)-2-oxo-2,5-dihydro-pyrrol-1-yl]-N-[1-((R)-2,3-dihydroxy-propyl)-1H-pyrazol-3-yl]-3-(tetrahydro-pyran-4-yl)-propionamide]",0.053
9,"CC(C)C[C@@H](C(=O)Nc1ccn(C[C@@H](O)CO)n1)N1CC(Oc2cccc(CC(C)(C)O)c2)=CC1=O [Example 238, (S)-2-{4-[3-(2-Hydroxy-2-methyl-propyl)-phenoxy]-2-oxo-2,5-dihydro-pyrrol-1-yl}-4-methyl-pentanoic acid [1-((R)-2,3-dihydroxy-propyl)-1H-pyrazol-3-yl]-amide]",1.125
10,"CC1(C)OC[C@@H](Cn2ccc(NC(=O)[C@H](Cc3ccccc3Cl)N3CC(Oc4ccccc4Cl)=CC3=O)n2)O1 [Example 188, (S)-2-[4-(2-chloro-phenoxy)-2-oxo-2,5-dihydro-pyrrol-1-yl]-N-[1-((R)-2,2-dimethyl-[1,3]dioxolan-4-yl-methyl)-1H-pyrazol-3-yl]-3-(2-chlorophenyl)-propionamide]",1.629
11,"COc1cccc(OC2=CC(=O)N([C@@H](CC3CCCCC3)C(=O)Nc3ccn(CC(C)(C)O)n3)C2)c1 [Example 208, (S)-3-cyclohexyl-N-[1-(2-hydroxy-2-methyl-propyl)-1H-pyrazol-3-yl]-2-[4-(3-methoxy-phenoxy)-2-oxo-2,5-dihydro-pyrrol-1-yl]-propionamide]",0.012
12,"CCOc1cccc(OC2=CC(=O)N([C@@H](CC(C)C)C(=O)Nc3cnc([C@H](O)CO)cn3)C2)c1F [Example 151, (S)-2-[4-(3-Ethoxy-2-fluoro-phenoxy)-2-oxo-2,5-dihydro-pyrrol-1-yl]-4-methyl-pentanoic acid [5-((S)-1,2-dihydroxy-ethyl)-pyrazin-2-yl]-amide]",0.063
13,"CC(C)C[C@@H](C(=O)Nc1ccn(C)n1)N1CC(Oc2cccc(C(C)(C)O)c2F)=CC1=O [Example 143, (S)-2-{4-[2-Fluoro-3-(1-hydroxy-1-methyl-ethyl)-phenoxy]-2-oxo-2,5-dihydro-pyrrol-1-yl}-4-methyl-pentanoic acid (1-methyl-1H-pyrazol-3-yl)-amide]",2.089
14,"CC(C)C[C@@H](C(=O)Nc1ccn(CC(C)(C)O)n1)N1CC(Oc2cccc(O)c2F)=CC1=O [Example 126, (S)-2-[4-(2-Fluoro-3-hydroxy-phenoxy)-2-oxo-2,5-dihydro-pyrrol-1-yl]-4-methyl-pentanoic acid [1-(2-hydroxy-2-methyl-propyl)-1H-pyrazol-3-yl]-amide]",0.182
15,CC(C)C[C@@H](C(=O)Nc1ccn(C[C@@H]2C[C@H](CC(=O)OC(C)(C)C)OC(C)(C)O2)n1)N1CC(Oc2ccccc2Cl)=CC1=O [Example 192],0.412
16,"CC(C)C[C@@H](C(=O)Nc1ccn(CC(C)(C)O)n1)N1CC(Oc2cccc(CC(C)(C)O)c2)=CC1=O [Example 236, (S)-2-{4-[3-(2-Hydroxy-2-methyl-propyl)-phenoxy]-2-oxo-2,5-dihydro-pyrrol-1-yl}-4-methyl-pentanoic acid [1-(2-hydroxy-2-methyl-propyl)-1H-pyrazol-3-yl]-amide]",0.823
17,"CC(C)C[C@@H](C(=O)Nc1ccn(CC(C)(C)O)n1)N1CC(Oc2c(F)cccc2F)=CC1=O [Example 45, (S)-2-[4-(2,6-difluoro-phenoxy)-2-oxo-2,5-dihydro-pyrrol-1-yl]-4-methyl-pentanoic acid [1-(2-hydroxy-2-methyl-propyl)-1H-pyrazol-3-yl]-amide]",0.198
18,"CC(C)(O)Cn1ccc(NC(=O)[C@H](CC2CCCCC2)N2CC(Oc3c(F)ccc(Cl)c3F)=CC2=O)n1 [Example 72, (S)-2-[4-(3-Chloro-2,6-difluoro-phenoxy)-2-oxo-2,5-dihydro-pyrrol-1-yl]-3-cyclohexyl-N-[1-(2-hydroxy-2-methyl-propyl)-1H-pyrazol-3-yl]-propionamide]",0.024
19,"CC(C)C[C@@H](C(=O)Nc1ccn(CC(C)(C)O)n1)N1CC(Oc2c(F)ccc(OC(C)C)c2F)=CC1=O [Example 135, (S)-2-[4-(2,6-Difluoro-3-isopropoxy-phenoxy)-2-oxo-2,5-dihydro-pyrrol-1-yl]-4-methyl-pentanoic acid [1-(2-hydroxy-2-methyl-propyl)-1H-pyrazol-3-yl]-amide]",0.066
20,"COCCc1nsc(NC(=O)[C@H](CC(C)C)N2CC(Oc3ccccc3Cl)=CC2=O)n1 [Example 104, (S)-2-[4-(2-Chloro-phenoxy)-2-oxo-2,5-dihydro-pyrrol-1-yl]-4-methyl-pentanoic acid [3-(2-methoxy-ethyl)-[1,2,4]thiadiazol-5-yl]-amide]",1.03
21,"CC[C@@H](C)CC(C(=O)Nc1ccn(C[C@@H](O)CO)n1)N1CC(Oc2ccccc2Cl)=CC1=O (stereo partly drawn) [Example 253, (R)-2-[4-(2-Chloro-phenoxy)-2-oxo-2,5-dihydro-pyrrol-1-yl]-4-methyl-hexanoic acid [1-((R)-2,3-dihydroxy-propyl)-1H-pyrazol-3-yl]-amide]",0.113
22,"COc1cccc(OC2=CC(=O)N([C@@H](CC(C)C)C(=O)Nc3ccn(C[C@@H](O)CO)n3)C2)c1 [Example 160, (S)-2-[4-(3-Methoxy-phenoxy)-2-oxo-2,5-dihydro-pyrrol-1-yl]-4-methyl-pentanoic acid [1-((R)-2,3-dihydroxy-propyl)-1H-pyrazol-3-yl]-amide]",0.306
23,"CC[C@H](C)CC(C(=O)Nc1ccn(C[C@@H](O)CO)n1)N1CC(Oc2ccccc2Cl)=CC1=O (mixture of isomers) [Example 249, (S)-2-[4-(2-Chloro-phenoxy)-2-oxo-2,5-dihydro-pyrrol-1-yl]-4-methyl-hexanoic acid [1-((R)-2,3-dihydroxy-propyl)-1H-pyrazol-3-yl]-amide]",0.125

# Same assay, conditions: at 30 μM test compound
row,SMILES,fold act. @ 30 μM [fold]
1,"O=C(Nc1ccn(C[C@@H](O)CO)n1)C(CC(F)(F)F)N1CC(Oc2ccccc2Cl)=CC1=O (stereo partly drawn) [Example 224, 2-[4-(2-Chloro-phenoxy)-2-oxo-2,5-dihydro-pyrrol-1-yl]-N-[1-((R)-2,3-dihydroxy-propyl)-1H-pyrazol-3-yl]-4,4,4-trifluoro-butyramide]",1.4
2,"CC(C)C[C@@H](C(=O)Nc1nc(CCC(F)(F)F)ns1)N1CC(Oc2ccccc2Cl)=CC1=O [Example 106, (S)-2-[4-(2-Chloro-phenoxy)-2-oxo-2,5-dihydro-pyrrol-1-yl]-4-methyl-pentanoic acid [3-(3,3,3-trifluoro-propyl)-[1,2,4]thiadiazol-5-yl]-amide]",1.5
